Measured values as given in BindingDB's records for doi:10.1021/jm960248s (Smithkline Beecham Pharmaceuticals, 1996).

Molecular target: fMet-Leu-Phe receptor (Homo sapiens) (UniProt P21462)
Test: Inhibitory concentration against fMLP receptor with [3H]- fMLP in receptor binding assay

Chain of fMet-Leu-Phe receptor (Homo sapiens) (P21462 whole entry, looked up): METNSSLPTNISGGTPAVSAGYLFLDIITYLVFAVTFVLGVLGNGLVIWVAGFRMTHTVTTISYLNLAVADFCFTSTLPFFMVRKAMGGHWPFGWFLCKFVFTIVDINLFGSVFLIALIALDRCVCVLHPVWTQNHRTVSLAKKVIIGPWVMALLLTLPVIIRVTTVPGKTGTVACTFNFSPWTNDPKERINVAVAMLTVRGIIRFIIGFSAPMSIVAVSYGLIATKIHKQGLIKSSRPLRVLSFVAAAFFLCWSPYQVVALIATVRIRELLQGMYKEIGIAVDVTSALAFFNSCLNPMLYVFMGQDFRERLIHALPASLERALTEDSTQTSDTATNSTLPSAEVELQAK

With O=C(O)/C=C/c1nc(CSc2c(Cl)cccc2Cl)ccc1OCCc1ccccc1 [Ticolubant] the IC50 was 3.25 µM.
